Molecular target: T1, PHD2 (Homo sapiens, UniProt Q9GZT9)
T1 construct: FLAG-tagged full length PHD2 expressed in and purified from baculovirus-infected Sf9 cells; FLAG; made in house; host or cells: baculovirus-infected Sf9 cells
Assay: PHD2 inhibition assay (time resolved fluorescence, HIF-1α peptide hydroxylation / VHL complex detection)
Type: biochemical
Conditions: FLAG-tagged full length PHD2; 0.2 μM 2-oxoglutarate, 0.5 μM HIF-1α peptide
Procedure: To each well of a 96-well plate was added 1 μL of test compound in DMSO and 20 μl of assay buffer (50 mM Iris pH 7.4/0.01% Tween-20/0.1 mg/ml bovine serum albumin/10 μM ferrous sulfate/1 mM sodium ascorbate/20 μg/ml catalase) containing 0.15 μg/ml FLAG-tagged full length PHD2 expressed in and purified from baculovirus-infected Sf9 cells. After a 30 min preincubation at room temperature, the enzymatic reactions were initiated by the addition of […] of substrates (final concentrations of 0.2 μM 2-oxoglutarate and 0.5 μM HIF-1α peptide biotinyl-DLDLEMLAPYIPMDDDFQL (SEQ ID NO:1)). After 2 hr at room temperature, the reactions were terminated and signals were developed by the addition of a 25 μL quench/detection mix to a final concentration of 1 mM ortho-phenanthroline, 0.1 mM EDTA, 0.5 nM anti-(His)6 LANCE reagent (Perkin-Elmer Life Sciences), 100 nM AF647-labeled streptavidin (Invitrogen), and 2 μg/ml (His)-6-VHL complex (S. Tan(2001) Protein Expr. Purif. 21, 224-234). The ratio of time resolved fluorescence signals at 665 and 620 nm was determined, and percent inhibition was calculated relative to an uninhibited control sample run in parallel.

T1 sequence (Q9GZT9 whole entry, species assumed): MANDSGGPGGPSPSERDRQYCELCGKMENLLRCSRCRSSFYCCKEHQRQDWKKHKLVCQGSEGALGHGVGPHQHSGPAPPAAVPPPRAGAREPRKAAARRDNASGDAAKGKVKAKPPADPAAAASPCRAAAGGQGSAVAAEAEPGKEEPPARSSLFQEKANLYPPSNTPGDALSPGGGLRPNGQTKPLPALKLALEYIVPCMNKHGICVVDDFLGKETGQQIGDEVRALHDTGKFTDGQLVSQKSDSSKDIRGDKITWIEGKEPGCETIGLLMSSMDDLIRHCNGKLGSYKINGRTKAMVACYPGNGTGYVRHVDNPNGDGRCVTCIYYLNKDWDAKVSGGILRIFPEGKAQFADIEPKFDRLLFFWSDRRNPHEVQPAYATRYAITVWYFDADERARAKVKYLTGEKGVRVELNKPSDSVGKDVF

Row | Structure (SMILES) | IC50
1 | COc1ccc(CC(=O)Nc2cnc(-n3cccn3)nc2O)cc1 [Compound 3-32, N-(4-hydroxy-2-(1H-pyrazol-1-yl)pyrimidin-5-yl)-2-(4-methoxyphenyl)acetamide] | 0.0005 to 0.02 µM
2 | O=C(Nc1cnc(-n2cccn2)nc1O)C1CCc2ccccc2C1 (stereo not drawn) [Compound 3-54, 1,2,3,4-tetrahydro-N-(4-hydroxy-2-(1H-pyrazol-1-yl)pyrimidin-5-yl)naphthalene-2-carboxamide] | 0.02 to 0.1 µM
3 | CC(C)C(C(=O)Nc1cnc(-n2cccn2)nc1O)c1ccccc1 (stereo not drawn) [Compound 3-35, N-(4-hydroxy-2-(1H-pyrazol-1-yl)pyrimidin-5-yl)-3-methyl-2-phenylbutanamide] | 0.02 to 0.1 µM
4 | O=C(Cc1ccc2c(c1)OCO2)Nc1cnc(-n2cccn2)nc1O [Compound 3-40, 2-(benzo[d][1,3]dioxol-5-yl)-N-(4-hydroxy-2-(1H-pyrazol-1-yl)pyrimidin-5-yl)acetamide] | 0.0005 to 0.02 µM
5 | N#Cc1cccc(C(=O)Nc2cnc(-n3cccn3)nc2O)c1 [Compound 3-8, 3-cyano-N-(4-hydroxy-2-(1H-pyrazol-1-yl)pyrimidin-5-yl)benzamide] | 0.02 to 0.1 µM
6 | CCCCCCC(=O)Nc1cnc(-n2cccn2)nc1O [Compound 3-43, N-(4-hydroxy-2-(1H-pyrazol-1-yl)pyrimidin-5-yl)heptanamide] | 0.0005 to 0.02 µM
7 | CCC(C)C(C(=O)Nc1cnc(-n2cccn2)nc1O)c1ccccc1 (stereo not drawn) [Compound 3-36, N-(4-hydroxy-2-(1H-pyrazol-1-yl)pyrimidin-5-yl)-3-methyl-2-phenylpentanamide] | 0.0005 to 0.02 µM
8 | CC(C)(C)OC(=O)N1CCCC(C(=O)Nc2cnc(-n3cccn3)nc2O)C1 (stereo not drawn) [Compound 3-49, tert-butyl 3-(4-hydroxy-2-(1H-pyrazol-1-yl)pyrimidin-5-ylcarbamoyl)piperidine-1-carboxylate] | 0.1 to 10 µM
9 | O=C(Nc1cnc(-n2cccn2)nc1O)c1ccccc1-c1ccccc1 [Compound 3-17, N-[4-hydroxy-2-(1H-pyrazol-1-yl)pyrimidin-5-yl]biphenyl-2-carboxamide] | 0.02 to 0.1 µM
10 | O=C(Nc1cnc(-n2cccn2)nc1O)Oc1ccc2ccccc2c1 [Compound 5-18, naphthalen-2-yl 4-hydroxy-2-(1H-pyrazol-1-yl)pyrimidin-5-ylcarbamate] | 0.1 to 10 µM
11 | O=C(Cc1ccc(C(F)(F)F)cc1)Nc1cnc(-n2cccn2)nc1O [Compound 3-29, 2-(4-(trifluoromethyl)phenyl)-N-(4-hydroxy-2-(1H-pyrazol-1-yl)pyrimidin-5-yl)acetamide] | 0.0005 to 0.02 µM
12 | CC(C(=O)Nc1cnc(-n2cccn2)nc1O)c1ccccc1 (stereo not drawn) [Compound 3-33, N-(4-hydroxy-2-(1H-pyrazol-1-yl)pyrimidin-5-yl)-2-phenylpropanamide] | 0.0005 to 0.02 µM
13 | O=C(Cc1ccccc1Cl)Nc1cnc(-n2cccn2)nc1O [Compound 3-23, 2-(2-chlorophenyl)-N-(4-hydroxy-2-(1H-pyrazol-1-yl)pyrimidin-5-yl)acetamide] | 0.0005 to 0.02 µM
14 | COc1ccccc1C(=O)Nc1cnc(-n2cccn2)nc1O [Compound 3-11, N-(4-hydroxy-2-(1H-pyrazol-1-yl)pyrimidin-5-yl)-2-methoxybenzamide] | 0.02 to 0.1 µM
15 | O=C(Cc1ccc(-c2ccccc2)cc1)Nc1cnc(-n2cccn2)nc1O [Compound 3-42, 2-(biphenyl-4-yl)-N-(4-hydroxy-2-(1H-pyrazol-1-yl)pyrimidin-5-yl)acetamide] | 0.0005 to 0.02 µM
16 | O=C(Cc1ccc(Cl)cc1)Nc1cnc(-n2cccn2)nc1O [Compound 3-25, 2-(4-chlorophenyl)-N-(4-hydroxy-2-(1H-pyrazol-1-yl)pyrimidin-5-yl)acetamide] | 0.0005 to 0.02 µM
17 | O=C(Cc1cccc(C(F)(F)F)c1)Nc1cnc(-n2cccn2)nc1O [Compound 3-28, 2-(3-(trifluoromethyl)phenyl)-N-(4-hydroxy-2-(1H-pyrazol-1-yl)pyrimidin-5-yl)acetamide] | 0.0005 to 0.02 µM
18 | CS(=O)(=O)c1cccc(C(=O)Nc2cnc(-n3cccn3)nc2O)c1 [Compound 3-15, N-(4-hydroxy-2-(1H-pyrazol-1-yl)pyrimidin-5-yl)-3-(methylsulfonyl)benzamide] | 0.02 to 0.1 µM
19 | CC(C)(C)OC(=O)N1CCC(C(=O)Nc2cnc(-n3cccn3)nc2O)CC1 [Compound 3-47, tert-butyl4-(4-hydroxy-2-(1H-pyrazol-1-yl)pyrimidin-5-ylcarbamoyl)piperidine-1-carboxylate] | 0.0005 to 0.02 µM
20 | O=C(Cc1ccc2ccccc2c1)Nc1cnc(-n2cccn2)nc1O [Compound 3-6, N-(4-hydroxy-2-(1H-pyrazol-1-yl)pyrimidin-5-yl)-2-(naphthalen-3-yl)acetamide] | 0.0005 to 0.02 µM
21 | N#Cc1ccccc1C(=O)Nc1cnc(-n2cccn2)nc1O [Compound 3-7, 2-cyano-N-(4-hydroxy-2-(1H-pyrazol-1-yl)pyrimidin-5-yl)benzamide] | 0.1 to 10 µM
22 | O=C(Nc1cnc(-n2cccn2)nc1O)c1cccc(-c2ccccc2)c1 [Compound 3-18, N-[4-hydroxy-2-(1H-pyrazol-1-yl)pyrimidin-5-yl]biphenyl-3-carboxamide] | 0.02 to 0.1 µM
23 | CCC(C(=O)Nc1cnc(-n2cccn2)nc1O)c1ccccc1 (stereo not drawn) [Compound 3-34, N-(4-hydroxy-2-(1H-pyrazol-1-yl)pyrimidin-5-yl)-2-phenylbutanamide] | 0.0005 to 0.02 µM
24 | O=C(Nc1cnc(-n2cccn2)nc1O)C1CCCCC1 [Compound 3-46, N-(4-hydroxy-2-(1H-pyrazol-1-yl)pyrimidin-5-yl)cyclohexanecarboxamide] | 0.02 to 0.1 µM
25 | O=C(CCCc1ccccc1)Nc1cnc(-n2cccn2)nc1O [Compound 3-45, N-(4-hydroxy-2-(1H-pyrazol-1-yl)pyrimidin-5-yl)-4-phenylbutanamide] | 0.0005 to 0.02 µM
26 | O=C(Nc1cnc(-n2cccn2)nc1O)c1ccc(Cl)cc1 [Compound 3-3, 4-chloro-N-(4-hydroxy-2-(1H-pyrazol-1-yl)pyrimidin-5-yl)benzamide] | 0.02 to 0.1 µM
27 | O=C(Nc1cnc(-n2cccn2)nc1O)C(c1ccccc1)c1ccccc1 [Compound 2-1, N-(4-hydroxy-2-(1H-pyrazol-1-yl)pyrimidin-5-yl)-2,2-diphenylacetamide] | 0.0005 to 0.02 µM
28 | O=C(Cc1cccc2ccccc12)Nc1cnc(-n2cccn2)nc1O [Compound 3-39, N-(4-hydroxy-2-(1H-pyrazol-1-yl)pyrimidin-5-yl)-2-(naphthalen-1-yl)acetamide] | 0.0005 to 0.02 µM
29 | O=C(Nc1cnc(-n2cccn2)nc1O)Oc1ccccc1 [Compound 5-9, phenyl 4-hydroxy-2-(1H-pyrazol-1-yl)pyrimidin-5-ylcarbamate] | 0.1 to 10 µM
30 | COc1ccc(C(=O)Nc2cnc(-n3cccn3)nc2O)cc1 [Compound 3-13, N-(4-hydroxy-2-(1H-pyrazol-1-yl)pyrimidin-5-yl)-4-methoxybenzamide] | 0.02 to 0.1 µM

More lines, now with the values ahead:

Row | IC50 | Structure (SMILES)
31 | 0.1 to 10 µM | O=C(Cc1cnc(-n2cccn2)nc1O)NC1CCCCC1 [Compound 12-2, N-cyclohexyl-2-(4-hydroxy-2-(1H-pyrazol-1-yl)pyrimidin-5-yl)acetamide]
32 | 0.0005 to 0.02 µM | Oc1nc(-n2cccn2)ncc1NC(=S)NC(c1ccccc1)c1ccccc1 [Compound 6-1, 1-benzhydryl-3-(4-hydroxy-2-(1H-pyrazol-1-yl)pyrimidin-5-yl)thiourea]
33 | 0.0005 to 0.02 µM | CC(NC(=O)Nc1cnc(-n2cccn2)nc1O)c1ccccc1 (stereo not drawn) [Compound 5-3, 1-(4-hydroxy-2-(1H-pyrazol-1-yl)pyrimidin-5-yl)-3-(1-phenylethyl)urea]
34 | 0.02 to 0.1 µM | CC(C)(NC(=S)Nc1cnc(-n2cccn2)nc1O)c1ccccc1 [Compound 8-1, 1-(4-hydroxy-2-(1H-pyrazol-1-yl)pyrimidin-5-yl)-3-(2-phenylpropan-2-yl)thiourea]
35 | 0.1 to 10 µM | CC(C)(C)OC(=O)Nc1cnc(-n2cccn2)nc1O [Compound 5-12, tert-butyl 4-hydroxy-2-(1H-pyrazol-1-yl)pyrimidin-5-yl carbamate]
36 | 0.1 to 10 µM | O=C(OC(c1ccccc1)c1ccccc1)c1cnc(-n2cccn2)nc1O [Compound 9-1, benzhydryl 4-hydroxy-2-(1H-pyrazol-1-yl)pyrimidine-5-carboxylate]
37 | 0.02 to 0.1 µM | O=C(Nc1cnc(-n2cccn2)nc1O)OCCc1ccccc1 [Compound 5-16, phenethyl 4-hydroxy-2-(1H-pyrazol-1-yl)pyrimidin-5-ylcarbamate]
38 | 0.02 to 0.1 µM | O=C(Nc1cnc(-n2cccn2)nc1O)OC1CCCCC1 [Compound 5-10, cyclohexyl 4-hydroxy-2-(1H-pyrazol-1-yl)pyrimidin-5-ylcarbamate]
39 | 0.0005 to 0.02 µM | CC(NC(=S)Nc1cnc(-n2cccn2)nc1O)c1ccccc1 (stereo not drawn) [Compound 7-1, 1-(4-hydroxy-2-(1H-pyrazol-1-yl)pyrimidin-5-yl)-3-(1-phenylethyl)thiourea]
40 | 0.1 to 10 µM | O=C(Cc1cnc(-n2cccn2)nc1O)Nc1ccc(Cl)cc1 [Compound 12-1, N-(4-chlorophenyl)-2-(4-hydroxy-2-(1H-pyrazol-1-yl)pyrimidin-5-yl)acetamide]
41 | 0.1 to 10 µM | Oc1nc(-n2cccn2)ncc1-c1cnn(Cc2ccccc2)c1 [Compound 11-2, 5-(1-benzyl-1H-pyrazol-4-yl)-2-(1H-pyrazol-1-yl)pyrimidin-4-ol]
42 | 0.1 to 10 µM | CC(C)(C)NC(=O)Nc1cnc(-n2cccn2)nc1O [Compound 5-6, ert-butyl-3-(4-hydroxy-2-(1H-pyrazol-1-yl)pyrimidin-5-yl)urea]

Reference: patent US9006433B2, “Substituted pyrimidines” (Merck Sharp & Dohme Corp., priority 2010, dated 2015)
